Reference: patent US20130046098A1, “KINASE INHIBITORS” (THE UNIVERSITY OF MANCHESTER, priority 2009, published 2013)
“Also recorded” adds a separate entry of the source.

Tests used:
[1] = tested on: GEF16 transfected NIH3T3 cells; assay: Cell proliferation assay (Celltiter Aq96); format: cell-based, mouse; conditions: 10 μM, Cell AQ96 absorbance at 6, 8 and 10 days
Protocol: FIG. 1D is a bar chart showing the results of Cell AQ^96 assessment of the growth of GEF16 and vector transfected cells seeded in a 96 well plate at 1×10^3 cells per well. These were incubated for 3 days followed by addition of reagent to determine the starting point for the assay. 10 μM of either Y27632 or DMSO were then added to wells containing both cell types and Cell AQ^96 absorbance measured at 6, 8 and 10 days. At day 3 cells were 100% confluent which was determined by phase contrast visual inspection of the cultures at ×20 magnification;
Cell proliferation was investigated using Celltiter Aq^96 reagent (Promega, Southampton, UK) according to the manufacturer's protocol. Cells were seeded into a 96-well plate at a density of 1×10^3 cells/well allowing 3 wells per data point and allowed to attach for a set period. Following this, the initial starting point 490 nm absorbance was determined by adding 20 μl of Aq^96 reagent to each well and incubating for 4 h at 37° C. in 5% CO2 (96-well plate reader, Dynex Technologies, West Sussex, UK). The various compounds (Y27632 or compounds of the invention) or DMSO control were then added to duplicate wells and the absorbance determined in the same way at the time points indicated. Each data set shown is representative of three separate experiments.

[2] = tested on: polyclonal GEF16 transfected NIH3T3 cells; assay: Transformed colony forming assay (Toluidine blue)
Protocol: Following this incubation period the compound was then removed from the culture media and cells maintained in normal growth media for a further 10 days before the photographs shown were taken.
In FIG. 4A polyclonal GEF16 transfected cells were seeded at 2.0×10^5 cells per 30 mm dish and incubated over night. […] After a further 10 days culture in the absence of inhibitors the cells were stained with Toluidine blue and photographed to produce the images shown. […] These were incubated for 3 or 6 days then stained with Toluidine blue before being photographed.
Medium (containing the compound of interest—either Y27632 or the selected compounds of the invention—or DMSO control) was changed every 2 days. Formation of foci was analysed by Toluidine blue (Sigma-Aldrich, Poole, UK) staining after 10 days growth post confluence. […] Each assay was carried out in triplicate and the results shown are representative of at least three separate experiments.

[3] = tested on: single transformed colony derived GEF16 NIH3T3 cells; assay: Growth of cell populations derived from single GEF16 transformed colonies; format: cell-based, mouse; conditions: FIG. 5A
Protocol: FIG. 5 illustrates that the growth suppressive effects of YA1 on single transformed colony derived GEF16 NIH3T3 cells and polyclonal Ras transformed NIH3T3 cells are more pronounced when these are co-cultured with non-transformed cells. In FIG. 5A single transformed colonies were picked from 10 day cultures of GEF16 polyclonal NIH3T3 cells and expanded. These cells were then seeded at 2.0×10^5 cells per 30 mm dish and treated with 10 μM of YA1 or DMSO control either immediately or following 10 days in culture. Duplicate wells were harvested for flow cytometry. In FIG. 5B a total of 2×10^5 cells per well were plated consisting of increasing numbers of non-transformed vector cells co-cultured with decreasing numbers of single transformed colony derived GEF16 cells. These were treated with 10 μM of either YA1 or DMSO for 10 days. In producing the results shown in FIG. 5C the same co-culture experiment described in connection with FIG. 5B was carried out substituting polyclonal Ras transformed NIH3T3 cells for GEF16 transformed cells.
Single transformed colonies were picked from GEF16 polyclonal NIH3T3 cells and expanded according to the methods described above. Expanded cell populations were plated and a compound of the invention (YA1) added either immediately or after 10 days when the cells were post-confluent.

PKC epsilon = target: T1, PKC epsilon (Homo sapiens, UniProt Q02156); conditions: 10 μM; cited from earlier work
T1 sequence (Q02156 1-737): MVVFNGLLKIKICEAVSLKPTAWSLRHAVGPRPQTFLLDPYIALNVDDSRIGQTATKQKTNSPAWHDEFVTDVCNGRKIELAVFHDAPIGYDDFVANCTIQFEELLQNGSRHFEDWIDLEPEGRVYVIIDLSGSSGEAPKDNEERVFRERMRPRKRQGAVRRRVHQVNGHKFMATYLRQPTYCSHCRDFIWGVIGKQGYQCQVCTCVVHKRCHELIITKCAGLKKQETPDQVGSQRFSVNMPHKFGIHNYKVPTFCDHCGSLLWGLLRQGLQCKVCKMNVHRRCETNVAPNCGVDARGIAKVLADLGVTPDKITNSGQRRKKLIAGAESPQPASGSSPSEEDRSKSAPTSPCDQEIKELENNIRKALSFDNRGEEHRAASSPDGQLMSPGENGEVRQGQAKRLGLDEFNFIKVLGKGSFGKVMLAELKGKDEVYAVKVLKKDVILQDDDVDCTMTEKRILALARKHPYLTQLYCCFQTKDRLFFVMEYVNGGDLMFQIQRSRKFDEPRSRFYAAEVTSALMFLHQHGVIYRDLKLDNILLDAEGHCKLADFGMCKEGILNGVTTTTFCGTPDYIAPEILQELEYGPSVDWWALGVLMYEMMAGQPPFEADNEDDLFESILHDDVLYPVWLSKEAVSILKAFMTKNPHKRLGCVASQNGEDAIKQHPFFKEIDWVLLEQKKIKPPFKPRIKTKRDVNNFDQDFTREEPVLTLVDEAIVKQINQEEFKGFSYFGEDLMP

p38 alpha (MAPK14) = p38 alpha (MAPK14) (Homo sapiens, UniProt Q16539); assay: SelectScreen in vitro kinase profiling, single point; conditions: additional single point analysis, 10 μM
Chain of p38 alpha (MAPK14) (Q16539 whole entry): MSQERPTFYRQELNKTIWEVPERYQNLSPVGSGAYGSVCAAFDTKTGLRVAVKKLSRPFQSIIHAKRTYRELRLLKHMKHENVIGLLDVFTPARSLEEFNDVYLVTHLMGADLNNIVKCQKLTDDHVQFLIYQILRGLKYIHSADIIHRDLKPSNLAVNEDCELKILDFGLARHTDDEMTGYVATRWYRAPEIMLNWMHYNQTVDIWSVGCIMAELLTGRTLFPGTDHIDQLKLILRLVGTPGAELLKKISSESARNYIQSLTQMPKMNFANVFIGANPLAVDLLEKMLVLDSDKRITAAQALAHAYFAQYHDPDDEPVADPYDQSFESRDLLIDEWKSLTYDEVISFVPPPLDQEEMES

recombinant ROCK = assay: In vitro ROCK activity assay (Cyclex Rho-kinase immunoassay); format: biochemical; conditions: FIG. 2A bar chart
Protocol: A specific assay was used to evaluate the ability of the compounds of the invention to inhibit ROCK. Rho-kinase activity was determined using an immunoassay as recommended by the manufacturer (Cyclex Co., Ltd., Nagano, Japan). Briefly, […] samples containing 10 mUnit (1 Unit incorporates 1 nmol of phosphate into GST-MBS/MYPT1 per minute at 30° C.) of recombinant ROCK with or without the compounds of the invention were aliquoted into a 96-well plate (100 μl/well), pre-coated with threonine Rho-kinase phosphorylation substrate. After 30 min incubation at 30° C., the plate was washed three times with PBS then incubated with 100 μl/well of HRP conjugated anti-phospho-specific antibody for 1 h at room temperature. The amount of phosphorylated substrate was determined by adding 100 μl/well of substrate reagent for 10 min and the reaction was terminated by adding 100 μl/well of the stop solution. The absorbance was measured on a 96-well plate reader at 450 nm (Dynex Technologies, West Sussex, UK). Each data point was performed in triplicate and the assay was repeated twice.

Aurora A = target: T2, Aurora A (Homo sapiens, UniProt O14965); assay: SelectScreen in vitro kinase profiling, single point; conditions: additional single point analysis, 10 μM
T2 sequence (O14965 1-403): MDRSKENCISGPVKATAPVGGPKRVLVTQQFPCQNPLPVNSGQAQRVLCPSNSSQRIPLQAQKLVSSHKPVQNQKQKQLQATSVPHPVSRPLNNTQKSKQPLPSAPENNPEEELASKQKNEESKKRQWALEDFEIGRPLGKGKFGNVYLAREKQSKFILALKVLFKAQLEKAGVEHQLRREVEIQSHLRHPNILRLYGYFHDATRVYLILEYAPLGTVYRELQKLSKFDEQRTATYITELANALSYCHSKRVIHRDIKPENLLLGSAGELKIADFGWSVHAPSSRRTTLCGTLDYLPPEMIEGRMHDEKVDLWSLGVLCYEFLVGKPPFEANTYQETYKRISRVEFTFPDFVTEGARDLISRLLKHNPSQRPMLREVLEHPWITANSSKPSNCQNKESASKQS

ROCK1 = ROCK1 (Homo sapiens, UniProt Q13464); assay: SelectScreen additional single point analysis; conditions: 10 μM
Chain of ROCK1 (Q13464 whole entry): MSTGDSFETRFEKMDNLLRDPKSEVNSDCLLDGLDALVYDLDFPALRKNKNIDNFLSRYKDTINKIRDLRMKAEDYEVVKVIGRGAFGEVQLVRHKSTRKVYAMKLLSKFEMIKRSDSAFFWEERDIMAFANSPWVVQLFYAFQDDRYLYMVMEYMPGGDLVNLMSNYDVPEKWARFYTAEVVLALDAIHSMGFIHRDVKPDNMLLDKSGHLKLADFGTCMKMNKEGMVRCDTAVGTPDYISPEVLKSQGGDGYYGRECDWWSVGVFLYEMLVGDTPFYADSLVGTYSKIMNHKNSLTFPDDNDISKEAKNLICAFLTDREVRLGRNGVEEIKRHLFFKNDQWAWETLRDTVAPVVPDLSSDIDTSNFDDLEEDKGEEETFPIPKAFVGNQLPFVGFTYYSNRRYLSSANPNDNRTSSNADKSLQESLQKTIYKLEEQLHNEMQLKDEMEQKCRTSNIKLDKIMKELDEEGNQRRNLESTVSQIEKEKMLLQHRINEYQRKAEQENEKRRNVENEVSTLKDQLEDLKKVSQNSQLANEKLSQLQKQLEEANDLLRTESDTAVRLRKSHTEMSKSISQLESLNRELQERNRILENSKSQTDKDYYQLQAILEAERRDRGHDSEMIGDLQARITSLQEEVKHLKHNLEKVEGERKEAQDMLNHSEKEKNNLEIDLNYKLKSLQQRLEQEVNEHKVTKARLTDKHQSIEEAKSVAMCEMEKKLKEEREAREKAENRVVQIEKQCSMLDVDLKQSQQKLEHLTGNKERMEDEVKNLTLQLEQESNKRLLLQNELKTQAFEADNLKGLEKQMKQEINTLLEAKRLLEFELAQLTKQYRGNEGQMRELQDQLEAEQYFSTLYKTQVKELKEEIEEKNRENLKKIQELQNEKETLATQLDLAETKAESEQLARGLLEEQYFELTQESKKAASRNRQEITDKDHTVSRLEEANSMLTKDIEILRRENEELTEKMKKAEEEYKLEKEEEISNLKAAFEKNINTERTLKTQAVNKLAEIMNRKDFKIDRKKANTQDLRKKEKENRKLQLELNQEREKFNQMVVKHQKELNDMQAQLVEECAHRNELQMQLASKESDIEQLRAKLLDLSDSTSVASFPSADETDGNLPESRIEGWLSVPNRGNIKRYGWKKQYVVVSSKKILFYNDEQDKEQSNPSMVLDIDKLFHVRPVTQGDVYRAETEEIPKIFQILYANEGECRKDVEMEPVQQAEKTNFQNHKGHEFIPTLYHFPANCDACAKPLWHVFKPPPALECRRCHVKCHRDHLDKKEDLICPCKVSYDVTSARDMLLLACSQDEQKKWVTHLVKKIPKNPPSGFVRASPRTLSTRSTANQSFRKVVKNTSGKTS

HGK (MAP4K4) = HGK (MAP4K4) (Homo sapiens, UniProt O95819); assay: SelectScreen in vitro kinase profiling, single point; conditions: additional single point analysis, 10 μM
Chain of HGK (MAP4K4) (O95819 whole entry): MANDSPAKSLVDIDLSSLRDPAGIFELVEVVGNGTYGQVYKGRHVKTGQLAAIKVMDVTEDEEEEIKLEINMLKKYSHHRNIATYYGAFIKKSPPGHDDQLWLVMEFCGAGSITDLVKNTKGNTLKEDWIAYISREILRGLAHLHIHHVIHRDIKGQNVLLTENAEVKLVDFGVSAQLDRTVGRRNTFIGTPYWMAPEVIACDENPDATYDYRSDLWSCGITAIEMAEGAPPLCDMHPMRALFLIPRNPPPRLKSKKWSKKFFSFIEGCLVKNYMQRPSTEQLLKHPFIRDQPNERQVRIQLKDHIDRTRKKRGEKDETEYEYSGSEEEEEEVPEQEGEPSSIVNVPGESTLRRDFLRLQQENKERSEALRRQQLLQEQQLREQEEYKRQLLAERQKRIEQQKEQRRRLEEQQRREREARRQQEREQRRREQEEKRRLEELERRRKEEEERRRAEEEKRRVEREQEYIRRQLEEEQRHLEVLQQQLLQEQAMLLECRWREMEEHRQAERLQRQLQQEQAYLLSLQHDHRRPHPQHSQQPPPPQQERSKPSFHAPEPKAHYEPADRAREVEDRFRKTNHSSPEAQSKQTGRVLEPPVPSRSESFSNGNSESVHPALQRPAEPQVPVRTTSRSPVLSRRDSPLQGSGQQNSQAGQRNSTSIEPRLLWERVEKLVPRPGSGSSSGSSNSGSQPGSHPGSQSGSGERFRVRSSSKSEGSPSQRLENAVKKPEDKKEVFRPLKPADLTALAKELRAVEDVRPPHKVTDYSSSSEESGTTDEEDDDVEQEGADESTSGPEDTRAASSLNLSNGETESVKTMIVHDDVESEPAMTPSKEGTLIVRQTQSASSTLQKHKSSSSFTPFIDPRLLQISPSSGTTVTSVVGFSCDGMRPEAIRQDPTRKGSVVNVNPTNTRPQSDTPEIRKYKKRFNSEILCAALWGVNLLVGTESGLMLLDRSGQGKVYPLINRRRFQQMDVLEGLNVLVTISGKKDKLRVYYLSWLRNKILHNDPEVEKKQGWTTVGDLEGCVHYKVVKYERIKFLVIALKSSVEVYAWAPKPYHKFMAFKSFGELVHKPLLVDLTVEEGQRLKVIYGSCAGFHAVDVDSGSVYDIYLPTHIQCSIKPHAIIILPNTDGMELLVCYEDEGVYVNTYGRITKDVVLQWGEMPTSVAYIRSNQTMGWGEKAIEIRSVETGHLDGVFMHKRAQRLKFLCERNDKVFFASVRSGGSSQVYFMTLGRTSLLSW

ROCK2 = ROCK2 (Homo sapiens, UniProt O75116); assay: SelectScreen additional single point analysis; conditions: 10 μM
Chain of ROCK2 (O75116 whole entry): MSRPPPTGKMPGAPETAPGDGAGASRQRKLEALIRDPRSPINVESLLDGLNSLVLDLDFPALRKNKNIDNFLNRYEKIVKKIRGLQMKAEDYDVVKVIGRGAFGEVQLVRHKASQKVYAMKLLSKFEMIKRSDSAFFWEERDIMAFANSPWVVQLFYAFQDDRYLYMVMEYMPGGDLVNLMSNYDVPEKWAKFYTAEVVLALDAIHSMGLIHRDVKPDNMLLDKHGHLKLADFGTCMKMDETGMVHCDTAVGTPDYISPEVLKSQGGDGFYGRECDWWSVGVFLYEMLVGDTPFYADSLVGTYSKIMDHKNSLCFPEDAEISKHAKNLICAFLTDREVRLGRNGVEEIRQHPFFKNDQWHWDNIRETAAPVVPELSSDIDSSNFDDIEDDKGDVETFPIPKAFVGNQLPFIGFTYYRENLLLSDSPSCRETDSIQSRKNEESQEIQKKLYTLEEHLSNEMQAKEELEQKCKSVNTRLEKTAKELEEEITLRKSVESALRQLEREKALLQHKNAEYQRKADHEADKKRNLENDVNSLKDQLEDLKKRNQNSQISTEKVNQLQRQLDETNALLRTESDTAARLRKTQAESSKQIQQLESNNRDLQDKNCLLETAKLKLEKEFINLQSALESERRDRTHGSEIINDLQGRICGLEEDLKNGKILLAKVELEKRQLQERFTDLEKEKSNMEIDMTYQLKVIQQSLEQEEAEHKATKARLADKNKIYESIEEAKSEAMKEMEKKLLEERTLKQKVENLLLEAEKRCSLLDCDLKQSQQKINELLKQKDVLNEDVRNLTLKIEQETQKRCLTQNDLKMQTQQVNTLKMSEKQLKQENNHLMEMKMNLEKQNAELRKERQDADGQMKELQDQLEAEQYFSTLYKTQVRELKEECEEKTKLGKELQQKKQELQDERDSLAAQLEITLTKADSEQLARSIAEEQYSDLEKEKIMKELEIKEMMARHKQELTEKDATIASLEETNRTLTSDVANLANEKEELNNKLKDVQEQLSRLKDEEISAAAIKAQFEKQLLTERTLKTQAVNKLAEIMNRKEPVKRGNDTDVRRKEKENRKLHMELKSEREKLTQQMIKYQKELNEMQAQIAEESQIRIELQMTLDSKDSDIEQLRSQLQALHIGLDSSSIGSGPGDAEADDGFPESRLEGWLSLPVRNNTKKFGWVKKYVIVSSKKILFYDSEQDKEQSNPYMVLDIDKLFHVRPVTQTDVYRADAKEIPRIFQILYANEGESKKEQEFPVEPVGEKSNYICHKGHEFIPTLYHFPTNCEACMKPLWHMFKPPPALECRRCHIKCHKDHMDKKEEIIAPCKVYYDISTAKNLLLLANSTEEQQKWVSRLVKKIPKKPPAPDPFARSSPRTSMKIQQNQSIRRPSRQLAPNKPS

With `C[C@@H](N)[C@H]1CC[C@H](C(=O)Nc2ccncc2)CC1` [Compound Y27632, reference compound] the “growth of confluent GEF16 transformed cells” value [1] was “inhibits the growth of confluent GEF16 transformed cells”, the “transformed focus formation after treatment, re-seeding and chase” value ([2]; 10 μM for 2-10 days, re-seeded at 2×10^5, 10 day chase without inhibitor) was “able to suppress transformed focus formation” and the “formation of GEF16 transformed colonies” value ([2]; 10 μM, 10 days, post confluent cultures) was “suppresses the formation of GEF16 transformed NIH3T3 cell colonies”. The “effect on pre-formed transformed colonies” value ([2]; colonies formed for 10 days, then 10 μM or 20 μM for 3 and 6 days) was “very little effect on pre-formed transformed colonies; also recorded: Neither Y27632 nor the other compounds of the invention tested (data not shown) exhibited this property”, the “effect on single colony derived GEF16 transformed cells grown in the absence of non-transformed cells” value [3] was “little or no effect” and the “inhibition of PKC epsilon” value (PKC epsilon) was 94%.
With `C[S+]([O-])c1ccc(-c2nc(-c3ccncc3)c(-c3ccc(F)cc3)[nH]2)cc1` (stereo not shown) [SB203580, reference compound] the “activity against GEF16 transformed colonies” value ([2]; further studies by the inventors) was “some activity against GEF16 transformed colonies although this was much less than the compound of the invention YA1”.
In the case of `CN(C(=O)c1ccc(CNC(=O)OC(C)(C)C)cc1)c1ccncc1` [YA4, 4-(N-Methyl-N-pyridin-4-ylcarbamoyl)benzylcarbamic acid tert-butyl ester], the “activity against p38” value (p38 alpha (MAPK14)) is reported as “significant activity against p38, HGK and Aurora A”, the “ROCK inhibitory activity compared to Y27632” value (recombinant ROCK) is reported as “lower ROCK inhibitory activity; also recorded: significantly less activity against ROCK than did their structural analogue Y27632” and the “activity against Aurora A” value (Aurora A) is reported as “significant activity against p38, HGK and Aurora A”. For the same compound, the “activity against ROCK1” value (ROCK1) was “less activity against ROCKs than YA2”, the “activity against HGK” value (HGK (MAP4K4)) was “significant activity against p38, HGK and Aurora A” and the “activity against ROCK2” value (ROCK2) was “less activity against ROCKs than YA2”.
